“And” between values parts separate entries of the source, which are not always exact repeats. Equal values may be shown once.
Experiments:
ECHOR = assay: Example II in-water applied, greenhouse, transplanted paddy rice weeds; type: in vivo, Echinochloa oryzoides (Ard.) Fritsch
Method: Weed seeds or nutlets of the desired test plant species were planted in puddled soil (mud) prepared by mixing a shredded, non-sterilized mineral soil (50.5 percent silt, 25.5 percent clay, and 24 percent sand, with a pH of about 7.6 and an organic matter content of about 2.9 percent) and water at a 1:1 volumetric ratio. The prepared mud was dispensed in 365 mL aliquots into 16-ounce (oz.) non-perforated plastic pots with a surface area of 86.59 square centimeters (cm^2) leaving a headspace of 3 centimeters (cm) in each pot. Mud was allowed to dry overnight prior to planting or transplanting. Rice seeds were planted in Sun Gro MetroMix® 306 planting mixture, which typically has a pH of 6.0 to 6.8 and an organic matter content of about 30 percent, in plastic plug trays. Seedlings at the second or third leaf stage of growth were transplanted into 860 mL of mud contained in 32-oz. non-perforated plastic pots with a surface area of 86.59 cm^2 4 days prior to herbicide application. The paddy was created by filling the headspace of the pots with 2.5 to 3 cm of water. […] The plants were grown for 4-22 days in a greenhouse with an approximate 14 hr. photoperiod which was maintained at about 29° C. during the day and 26° C. during the night. Nutrients were added as Osmocote® (19:6:12, N:P:K+minor nutrients) at 2 g per 16-oz. pot and 4 g per 32-oz. pot. Water was added on a regular basis to maintain the paddy flood, and supplemental lighting was provided with overhead metal halide 1000-Watt lamps as necessary. The plants were employed for testing when they reached the first through fourth true leaf stage.
Treatments consisted of the acid or esters of 4-amino-3-chloro-5-fluoro-6-(4-chloro-2-fluoro-3-methoxy-phenyl)pyridine-2-carboxylic acid (compound A) each formulated as an SC (suspension concentrate) and various herbicidal components alone and in combination.
For formulated compounds, a measured amount was placed in an individual 100 or 200 mL glass vial and was dissolved in a volume of 1.25% (v/v) Agri-Dex® crop oil concentrate to obtain application solutions.
Applications were made by injecting with a pipetter appropriate amounts of the application solutions, individually and sequentially, into the aqueous layer of the paddy. Control plants were treated in the same manner with the solvent blank. Applications were made so that all treated plant material received the same concentrations of acetone and crop oil concentrate.
The treated plants and control plants were placed in a greenhouse as described above and water was added as needed to maintain a paddy flood. After approximately 3 weeks the condition of the test plants as compared with that of the untreated plants was determined visually and scored on a scale of 0 to 100 percent where 0 corresponds to no injury or growth inhibition and 100 corresponds to complete kill.
Colby's equation was used to determine the herbicidal effects expected from the mixtures (Colby, S. R. 1967. Calculation of the synergistic and antagonistic response of herbicide combinations. Weeds 15:20-22.).
The following equation was used to calculate the expected activity of mixtures containing two active ingredients, A and B: Expected=A+B−(A×B/100)

ECHCG = assay: Example I postemergence foliar-applied, greenhouse, direct seeded rice weeds; type: in vivo, Echinochloa crusgalli (L.) Beauv.
Source text: Seeds or nutlets of the desired test plant species were planted in a soil matrix prepared by mixing a loam or sandy loam soil (e.g., 28.6 percent silt, 18.8 percent clay, and 52.6 percent sand, with a pH of about 5.8 and an organic matter content of about 1.8 percent) and calcareous grit in an 80 to 20 ratio. The soil matrix was contained in plastic pots with a volume of 1 quart and a surface area of 83.6 square centimeters (cm^2). When required to ensure good germination and healthy plants, a fungicide treatment and/or other chemical or physical treatment was applied. The plants were grown for 8-22 days in a greenhouse with an approximate 14 hr. photoperiod which was maintained at about 29° C. during the day and 26° C. during the night. Nutrients (Peters Excel® 15-5-15 5-Ca 2-Mg and iron chelate) were applied in the irrigation solution as needed and water was added on a regular basis. Supplemental lighting was provided with overhead metal halide 1000-Watt lamps as necessary. The plants were employed for testing when they reached the first through fourth true leaf stage.
Treatments consisted of the acid or esters of 4-amino-3-chloro-5-fluoro-6-(4-chloro-2-fluoro-3-methoxy-phenyl)pyridine-2-carboxylic acid (Compound A), each formulated as an SC (suspension concentrate), and various herbicidal components alone and in combination.
Other herbicidal components were applied on an acid equivalent (ae) or active ingredient (ai) basis and included acetyl coA carboxylase (ACCase)-inhibiting herbicides (cyclohexanedione and aryloxyphenoxypropionate chemical classes) cyhalofop-butyl formulated as Clincher® SF (285 gr ai/L EC), diclofop-methyl formulated as Hoelon® 3EC, fenoxaprop-p-ethyl+isoxadifen-ethyl formulated as RiceStar® HT (0.58 lb./gal EC), fenoxaprop-p-ethyl+mefenpyr diethyl formulated as Puma® IEC, metamifop formulated as Metamifop EC, haloxyfop-methyl formulated as Gallant Super®, fluazifop-p-butyl formulated as Fusilade® DX, quizalofop-p-ethyl formulated as Assure® II, profoxydim formulated as Aura® 20EC, clethodim applied as Intensity®, sethoxydim formulated as Poast®, and tralkoxydim formulated as Achieve®.
Treatment requirements were calculated based upon the rates being tested, the concentration of active ingredient or acid equivalent in the formulation, and a 12 mL application volume at a rate of 187 L/ha.
For treatments comprised of formulated compounds, measured amounts of compounds were placed individually in 25 mL glass vials and diluted in a volume of 1.25% (v/v) Agri-Dex® crop oil concentrated to obtain 12× stock solutions. […] Application solutions were prepared by adding an appropriate amount of each stock solution (e.g., 1 mL) and diluted to the appropriate final concentrations with the addition of 10 mL of an aqueous mixture of 1.25% (v/v) crop oil concentrate so that the final spray solutions contained 1.25+/−0.05% (v/v) crop oil concentrate.
All stock solutions and applications solutions were visually inspected for compound compatibility prior to application. Spray solutions were applied to the plant material with an overhead Mandel track sprayer equipped with a 8002E nozzles calibrated to deliver 187 L/ha over an application area of 0.503 m^2 at a spray height of 18 to 20 inches (46 to 50 cm) above average plant canopy height. Control plants were sprayed in the same manner with the solvent blank.
The treated plants and control plants were placed in a greenhouse as described above and watered by sub-irrigation to prevent wash-off of the test compounds. After approximately 3 weeks, the condition of the test plants as compared with that of the untreated plants was determined visually and scored on a scale of 0 to 100 percent where 0 corresponds to no injury or growth inhibition and 100 corresponds to complete kill. […]

COc1c(Cl)ccc(-c2nc(C(=O)O)c(Cl)c(N)c2F)c1F [Compound A Acid, 4-amino-3-chloro-6-(4-chloro-2-fluoro-3-methoxyphenyl)-5-fluoropyridine-2-carboxylic acid] was tested, and the “Visual Weed Control (%) - 25 DAA ECHOR Obs” value (ECHOR; 8.75 gae/ha in-water) was 0%, the “Visual Weed Control (%) - 25 DAA ECHOR Obs” value (ECHOR; 17.5 gae/ha in-water) was 0% and the “Visual Weed Control (%) - 25 DAA ECHOR Obs” value (ECHOR; 35 gae/ha in-water) was 40%. For the same compound, the “Visual Weed Control (%) - 21 DAA ECHOR Obs” value (ECHOR; in-water, 8.75 gae/ha) was 0%, the “Visual Weed Control (%) - 21 DAA ECHOR Obs” value (ECHOR; in-water, 10.6 gae/ha) was 0% and the “Visual Weed Control (%) - 21 DAA ECHOR Obs” value (ECHOR; in-water, 21.2 gae/ha) was 15%. The “Visual Weed Control (%) - 21 DAA ECHOR Obs” value (ECHOR; in-water, 35 gae/ha) was 15% and 30%, the “Visual Weed Control (%) - 21 DAA ECHOR Obs” value (ECHOR; in-water, 42.4 gae/ha) was 15% and the “Visual Weed Control (%) - 21 DAA ECHOR Obs” value (ECHOR; in-water, Compound A Acid 8.75 gae/ha) was 10%. The “Visual Weed Control (%) - 21 DAA ECHOR Obs” value (ECHOR; in-water, Compound A Acid 17.5 gae/ha) was 15% and the “Visual Weed Control (%) - 21 DAA ECHOR Obs” value (ECHOR; in-water, Compound A Acid 35 gae/ha) was 20%.

With COc1c(Cl)ccc(-c2nc(C(=O)OCc3ccccc3)c(Cl)c(N)c2F)c1F [Compound A Benzyl Ester, benzyl ester of 4-amino-3-chloro-5-fluoro-6-(4-chloro-2-fluoro-3-methoxy-phenyl)pyridine-2-carboxylic acid] the “Visual Weed Control (%) - 21 DAA ECHOR Obs” value (ECHOR; in-water, 4.38 gae/ha) was 0%, the “Visual Weed Control (%) - 21 DAA ECHOR Obs” value (ECHOR; in-water, 8 gae/ha) was 10% and 8% and the “Visual Weed Control (%) - 21 DAA ECHOR Obs” value (ECHOR; in-water, 8.75 gae/ha) was 10% and 15%. For the same compound, the “Visual Weed Control (%) - 25 DAA ECHOR Obs” value (ECHOR; in-water, 8.75 gae/ha) was 85%, the “Visual Weed Control (%) - 25 DAA ECHOR Obs” value (ECHOR; in-water, 17.5 gae/ha) was 90% and the “Visual Weed Control (%) - 25 DAA ECHOR Obs” value (ECHOR; in-water, 35 gae/ha) was 100%. The “Visual Weed Control (%) - 21 DAA ECHOR Obs” value (ECHOR; in-water, 48 gae/ha) was 78%, the “Visual Weed Control (%) - 21 DAA ECHOR Obs” value (ECHOR; in-water, 96 gae/ha) was 80% and the “Visual Weed Control (%) - 22 DAA ECHCG Obs” value (ECHCG; 8 gae/ha) was 35%. The “Visual Weed Control (%) - 22 DAA ECHCG Obs” value (ECHCG; 16 gae/ha) was 65% and the “Visual Weed Control (%) - 22 DAA ECHCG Obs” value (ECHCG; 32 gae/ha) was 80%.

With CCCCOC(=O)[C@@H](C)Oc1ccc(Oc2ccc(C#N)cc2F)cc1 [Cyhalofop-butyl, butyl(2R)-2-[4-(4-cyano-2-fluorophenoxy)phenoxy]propanoate, reference compound] the “Visual Weed Control (%) - 25 DAA ECHOR Obs” value (ECHOR; 90 gai/ha, in-water) was 0% and the “Visual Weed Control (%) - 25 DAA ECHOR Obs” value (ECHOR; in-water, 90 gai/ha) was 0%.

For C[C@@H](Oc1ccc(Oc2nc3ccc(Cl)cc3o2)cc1)C(=O)N(C)c1ccccc1F [Metamifop, (2R)-2-[4-[(6-chloro-2-benzoxazolyl)oxy]phenoxy]-N-(2-fluorophenyl)-N-methylpropanamide], the “Visual Weed Control (%) - 21 DAA ECHOR Obs” value (ECHOR; in-water, 50 gai/ha) was 20%, the “Visual Weed Control (%) - 22 DAA ECHCG Obs” value (ECHCG; 9.38 gai/ha) was 0% and the “Visual Weed Control (%) - 22 DAA ECHCG Obs” value (ECHCG; 18.75 gai/ha) was 40%. For the same compound, the “Visual Weed Control (%) - 22 DAA ECHCG Obs” value (ECHCG; 37.5 gai/ha) was 70%.

In the case of CCC/C(=N\OCC(C)Oc1ccc(Cl)cc1)C1=C(O)CC(C2CCCSC2)CC1=O (stereo not drawn) [Profoxydim, 2-[1-[[2-(4-chlorophenoxy)propoxy]imino]butyl]-3-hydroxy-5-(tetrahydro-2H-thiopyran-3-yl)-2-cyclohexen-1-one, reference compound], the “Visual Weed Control (%) - 21 DAA ECHOR Obs” value (ECHOR; in-water, 25 gai/ha) is reported as 0%.

For CCOC(=O)[C@@H](C)Oc1ccc(Oc2cnc3cc(Cl)ccc3n2)cc1 [Quizalofop-p-ethyl, ethyl(2R)-2-[4-[(6-chloro-2-quinoxalinyl)oxy]phenoxy]propanoate, reference compound], the “Visual Weed Control (%) - 21 DAA ECHOR Obs” value (ECHOR; in-water, 15 gai/ha) was 0%, the “Visual Weed Control (%) - 21 DAA ECHOR Obs” value (ECHOR; in-water, 30 gai/ha) was 60% and the “Visual Weed Control (%) - 22 DAA ECHCG Obs” value (ECHCG; 3.75 gai/ha) was 20%. The “Visual Weed Control (%) - 22 DAA ECHCG Obs” value (ECHCG; 7.5 gai/ha) was 30%.
